Assay results from article PMC6486649 (Analytica chimica acta, 2019).

Columns and labels:
[1] = cited from earlier work
[2] = test system: hCMEC/D3 cells; type: in vitro ADME, human; conditions: either individually or in combination, p<0.05, two-way ANOVA

C[C@@H]1CCO[C@H]2Cn3cc(C(=O)NCc4ccc(F)cc4F)c(=O)c(O)c3C(=O)N12 [Dolutegravir]
LogP [1]: 1.10
Intracellular accumulation compared with tenofovir or emtricitabine [2]: significantly higher
